One series concerns P-493-6 cell line. Description: CellTiter-Blue assay, P-493-6 with low, medium or high c-Myc. Type of series: cell-based, human. The note with it: 72 hours, different expression levels of c-Myc induced. The source says:
(§1) Assay (d): CellTiter-Blue® Assay
(§2) Shep-ER-N-Myc cell line (cell type: human neuroblastoma) was sourced from Linda Valentijn, and firstly reported in Valentijn et. al., Cancer Res, 2005, 65(8), 3136-3145. SKNAS-ER-N-Myc cell line (cell type: human neuroblastoma) was sourced from Michael D. Hogarty, and firstly reported in Ushmorov et al., Oncogene, 2008, 27(24), 3424-3434. P-493-6 cell line was sourced from Chi Van Dang, and firstly reported in Pajic et. al., Int J Cancer, 2000, 87(6), 787-793. P-493-6 cell line is a non-transformed B cell line that can be genetically engineered to have either “low” levels of c-Myc, “medium” levels of c-Myc or “high” levels of c-Myc. The terms “low”, “medium” and “high” are descriptors commonly used in the art and will be readily understood to mean: • i) “low” levels of c-Myc—a level of MYC expression which represents non-proliferating normal cells (i.e. a level of MYC expression not sufficient to cause the cycling of the cells); • ii) “medium” levels of c-Myc—a level of MYC expression which represents normal proliferating cells; and • iii) “high” levels of c-Myc—a level of MYC expression which represents enforced/deregulated expression of c-Myc, typically observed in cancerous cells. […]

The next series deals with Shep-ER-N-Myc cell line. The series is described as follows: CellTiter-Blue assay, Shep-ER-N-Myc with or without MYCN induction. It is filed as cell-based, human. The note with it: 72 hours.
Excerpt: as §1, §2
For Shep cells, the experiment was performed in a 96 well plate and in technical quadruplicate. […] The fluorescence was measured at 570 nm using an EnVision™ plate reader. […]
(Alamar Blue is a resazurin reagent that responds to reducing activity.)

Series [1] has as its system P. falciparum Pf3D7^0087/N9. The series is described as follows: Mouse malaria model, NODscidIL2Rγnull mice engrafted with human erythrocytes.
Excerpt: Assay (h): Mouse Malaria Model Protocol
The goal of this study was to evaluate the efficacy of compounds of the invention against P. falciparum Pf3D7^0087/N9 in NODscidIL2Rγ^null mice engrafted with human erythrocytes.
Mice were euthanized on day 7.
For a further series, the system named is SKNAS-ER-N-Myc cell line. Description: CellTiter-Blue assay, SKNAS-ER-N-Myc with or without MYCN induction. Type of series: cell-based, human.
Excerpt: as §1, §2
For SKNAS cells, the experiment was performed in a 48 well plate and in technical triplicate. […] The fluorescence was measured at 570 nm using an EnVision™ plate reader. […]

The next series relates to DOHH-2 tumor cells. Description: Mouse xenograft, subcutaneous DOHH-2 Lymphoma Model. Type of series: in vivo. Conditions: intraperitoneally 25 mg/kg twice a day for three days then four day no-dosing, cycle repeated three times, compared to vehicle. The procedure: Assay (i): Mouse Xenograft Protocol
The in vivo efficacy was assess in a subcutaneous xenograft DOHH-2 Lymphoma Model using Female 6-8 week old CB17/SCID Mice. […] The test compound administration started once the mean tumor size reached approximately 100-150 mm3. Compounds were administered either IP (vehicle 58% Na2HPO4 buffer (10 mM) (pH4.5)+40% PEG400+2% DMSO) or orally (vehicle Na2HPO4 buffer (10 mM) (pH 4.5)+0.2% tween 80). Tumor volumes were measured in two dimensions using a caliper, and the volume expressed in mm3 using the formula: V=(L×W×W)/2, where V is tumor volume, L is tumor length (the longest tumor dimension) and W is tumor width (the longest tumor dimension perpendicular to L).
Mice were dosed with Example 2 orally (50 mg/kg) once a day for 9 consecutive days (FIG. 5a), or Example 2 was dosed intraperitonally (25 mg/kg) in a cycle consisting of administration twice a day for three days followed by a four day no-dosing period (FIG. 5b). The cycle was repeated three times.
Mice were dosed with Example 129 intraperitonally (25 mg/kg) in a cycle consisting of administration twice a day for three days followed by a four day no-dosing period (Figure Sc). The cycle was repeated three times.
The protocol and any amendment(s) or procedures involving the care and use of animals in this study were reviewed and approved by the Institutional Animal Care and Use Committee (IACUC) of CrownBio prior to execution. During the study, the care and use of animals was conducted in accordance with the regulations of the Association for Assessment and Accreditation of Laboratory Animal Care (AAALAC).

A further series deals with SU-DHL-10 cells. The series is described as follows: Cell cytotoxicity in SU-DHL-10 cell line (CellTiter-Glo). The note with it: Homo sapiens, SU-DHL10; CellTiter-Glo, 48 h; read-out: SU-DHL-10 EC50. It is filed as cell-based. In general terms: In ATP-based viability assays light output follows the ATP content of the culture.
The target in series [2] is T1, Human NMT1 (HsNMT1) (Homo sapiens, UniProt P30419). The series is described as follows: biochemical.
T1 sequence (P30419 whole entry, looked up): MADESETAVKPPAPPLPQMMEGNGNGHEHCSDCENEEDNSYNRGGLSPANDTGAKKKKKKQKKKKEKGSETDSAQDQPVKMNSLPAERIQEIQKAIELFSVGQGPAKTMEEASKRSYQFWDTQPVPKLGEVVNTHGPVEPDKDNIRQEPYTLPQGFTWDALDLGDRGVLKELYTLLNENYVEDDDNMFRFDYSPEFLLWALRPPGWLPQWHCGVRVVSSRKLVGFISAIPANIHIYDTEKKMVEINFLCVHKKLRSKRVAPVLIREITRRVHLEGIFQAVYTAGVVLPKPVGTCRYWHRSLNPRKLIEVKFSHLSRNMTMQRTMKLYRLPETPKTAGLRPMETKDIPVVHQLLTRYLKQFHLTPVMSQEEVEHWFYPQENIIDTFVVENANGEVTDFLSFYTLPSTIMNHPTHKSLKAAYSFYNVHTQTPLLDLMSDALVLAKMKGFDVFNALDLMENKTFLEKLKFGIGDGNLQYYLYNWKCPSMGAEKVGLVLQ
Series [3] concerns the target T1, Human NMT1 (HsNMT1).
For series [4], the target named is T2, Plasmodium vivax (Pv) NMT (Plasmodium vivax (strain Salvador I), UniProt A5K1A2).
T2 sequence (A5K1A2 1-410): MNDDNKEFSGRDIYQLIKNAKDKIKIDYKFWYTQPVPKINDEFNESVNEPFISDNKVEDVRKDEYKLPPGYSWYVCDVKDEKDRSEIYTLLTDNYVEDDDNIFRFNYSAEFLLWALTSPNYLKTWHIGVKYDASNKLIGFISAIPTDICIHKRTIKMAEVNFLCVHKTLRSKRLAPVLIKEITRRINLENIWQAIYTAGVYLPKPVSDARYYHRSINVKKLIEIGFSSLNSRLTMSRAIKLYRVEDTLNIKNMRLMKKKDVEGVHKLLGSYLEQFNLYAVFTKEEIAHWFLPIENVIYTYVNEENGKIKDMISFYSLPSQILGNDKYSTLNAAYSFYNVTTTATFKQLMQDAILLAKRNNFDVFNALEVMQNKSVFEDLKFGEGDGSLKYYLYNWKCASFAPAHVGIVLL
The next series in a line: in vitro. The note with it: male, Sprague-Dawley, rat, pooled cryopreserved rat hepatocytes, pH 7.4.
Series [5] has as its target T2, Plasmodium vivax (Pv) NMT. Description: biochemical.
For series [6], the system named is Plasmodium falciparum 3D7. Description: SYBR Green assay, Plasmodium falciparum strain 3D7. The note with it: P. falciparum strain 3D7, 96 h incubation, read-out: Pf EC50 strain 3D7. Type of series: cell-based.

Usually pEC50 stands for −log10 of the EC50, conventionally taken in molar units. As usually defined, the pIC50 is the IC50 on a negative log10 scale, so that one unit is a factor of ten. High values mean a low IC50, low ones a high IC50. By half-life is commonly meant the time needed for the level to fall by half in the phase considered. Low values mean fast loss, high ones slow loss.

pEC50, pIC50: −log10 of the molar value. Read-outs that look alike come from different tables or passages of the source. Marks after values point to notes of the source that are not given here.

Procedure for in vitro: Assay (e): Rat Hepatocyte Half Life
Certain example compound of the present invention were tested for metabolic stability in rat metabolic assays using hepatocytes derived from pooled male Sprague-Dawley rats.
Frozen pooled rat hepatocytes obtained from LifeTechnologies were thawed and purified according to the manufacturer's instructions. The test compound (4 mM) in DMSO was diluted with acetonitrile to provide a 100 μM sub-stock then further diluted with pH 7.4 Krebs-Henseleit buffer (supplemented with CaCl2, NaHCO3, HEPES, fructose and glycine) to provide a 2 μM working solution. 25 μL of working solution was incubated at 37° C., treated with 25 μL of rat hepatocyte suspension (containing 1×10^6 cells/mL) and incubated at 37° C. with 5% CO2 level at 95% relative humidity. Wells were incubated for an appropriate time (0, 15, 30, 45, 60 and 75 min) then quenched with 250 μL of acetonitrile containing reference standards diltiazem, 7-ethoxycoumarin and propranolol). The plates were shaken, sonicated for 5 min then cooled to 4° C. until all sampling was complete. All plates were centrifuged at 4000 rpm for 20 min to pellet the debris. 110 μL supernatant was diluted 110 μL water and quantitated using LC-MS/MS.
A linear regression curve was fitted to a plot of natural logarithm (In) of AUC against time. The T-half (min)=0.693/slope

On to `C[C@@H]1CN(c2ncc(Cl)c(N3CC(C(=O)NC(C)(C)c4cnc5ccccn45)C3)n2)CCN1C` [Example Compound 3], for which the “metabolic viability of the P-493-6 cell line” value in the series on P-493-6 cell line is “clear MYC-dependent loss in metabolic viability”. Besides, in the series on Shep-ER-N-Myc cell line, the “metabolic viability of the Shep-ER-N-MYC cell line” value is “clear loss in metabolic viability when the cells have induction of MYCN”. Further, the average parasitemia values in [1] (3 mg/kg po per day on day 3, 4, 5 and 6 post-infection, day 0 post infection) came out at 0.01%; in series [1] (3 mg/kg po per day on day 3, 4, 5 and 6 post-infection, day 3 post infection), 1.49%; in [1] (3 mg/kg po per day on day 3, 4, 5 and 6 post-infection, day 4 post infection), 4.77%; in series [1] (3 mg/kg po per day on day 3, 4, 5 and 6 post-infection, day 5 post infection), 6.73%; in series [1] (3 mg/kg po per day on day 3, 4, 5 and 6 post-infection, day 6 post infection), 10.66%; in [1] (3 mg/kg po per day on day 3, 4, 5 and 6 post-infection, day 7 post infection) it was 11.25%. For the same compound, the average parasitemia values in [1] (10 mg/kg po per day on day 3, 4, 5 and 6 post-infection, day 0 post infection) is 0.01%; in series [1] (10 mg/kg po per day on day 3, 4, 5 and 6 post-infection, day 3 post infection) it was 1.37%; in [1] (10 mg/kg po per day on day 3, 4, 5 and 6 post-infection, day 4 post infection) it was 2.40%; in [1] (10 mg/kg po per day on day 3, 4, 5 and 6 post-infection, day 5 post infection), 4.21%; in [1] (10 mg/kg po per day on day 3, 4, 5 and 6 post-infection, day 6 post infection), 6.09%; in series [1] (10 mg/kg po per day on day 3, 4, 5 and 6 post-infection, day 7 post infection), 7.35%. The average parasitemia values is reported as 0.01% in series [1] (30 mg/kg po per day on day 3, 4, 5 and 6 post-infection, day 0 post infection); 0.60% in series [1] (30 mg/kg po per day on day 3, 4, 5 and 6 post-infection, day 3 post infection); 0.18% in [1] (30 mg/kg po per day on day 3, 4, 5 and 6 post-infection, day 4 post infection); 0.02% in series [1] (30 mg/kg po per day on day 3, 4, 5 and 6 post-infection, day 5 post infection); 0.01% in [1] (30 mg/kg po per day on day 3, 4, 5 and 6 post-infection, day 6 post infection); 0.00* % in series [1] (30 mg/kg po per day on day 3, 4, 5 and 6 post-infection, day 7 post infection). Further, the “metabolic viability of the SKNAS-ER-N-MYC cell line” value in the series with SKNAS-ER-N-Myc cell line is “clear loss in metabolic viability when the cells have induction of MYCN”.

As to `C[C@H]1CNCCN1c1ncc(Cl)c(N2CC(C(=O)NC(C)(C)c3cnc4ccccn34)C2)n1` [Example 129, (S)-1-(5-chloro-2-(2-methylpiperazin-1-yl)pyrimidin-4-yl)-N-(2-(imidazo[1,2-a]pyridin-3-yl)propan-2-yl)azetidine-3-carboxamide], the tumour volume entry in the series with DOHH-2 tumor cells was “significant decrease in tumour volume”. Further, in the series with SU-DHL-10 cells, the pEC50 was 8.22. Further, at Human NMT1 (HsNMT1) [2], the pIC50 is 8.70.

Regarding `C[C@H]1CN(C)CCN1c1ncc(Cl)c(N2CC(C(=O)NC(C)(C)c3cnc4ccccn34)C2)n1` [Example compound 2], in the series on P-493-6 cell line, the “metabolic viability of the P-493-6 cell line” value is “clear MYC-dependent loss in metabolic viability”.

For the compound `Cc1cnc(CNC(=O)C2CN(c3nc(NCCN(C)C)ncc3Cl)C2)cn1` [Comparative Example 1, reference compound], the pIC50 is 4.34 at Human NMT1 (HsNMT1) [3] and 5.08 in [4].

With `C[C@H]1CN(C)CCN1c1ncc(Cl)c(N2CC(C(=O)NC(C)(C)c3cnc4ccccn34)C2)n1` [Example Compound 2], the “metabolic viability of the Shep-ER-N-MYC cell line” value in the series with Shep-ER-N-Myc cell line is reported as “clear loss in metabolic viability when the cells have induction of MYCN”. The “metabolic viability of the SKNAS-ER-N-MYC cell line” value with SKNAS-ER-N-Myc cell line was “clear loss in metabolic viability when the cells have induction of MYCN”.

Consider `CN(C)CCNc1ncc(Cl)c(N2CC(C(=O)NCc3ccc(F)cc3F)C2)n1` [Comparative Example 2], for which the negative-log IC50 (pIC50) in series [4] was 5.70.

On to `C[C@@H]1CN(c2ncc(F)c(N3CC(C(=O)N(C)C(C)(C)c4cnc5ccccn45)C3)n2)CCN1C` [Example 102, 1-{2-[(3R)-3,4-dimethylpiperazin-1-yl]-5-fluoropyrimidin-4-yl}-N-(2-{imidazo[1,2-a]pyridin-3-yl}propan-2-yl)-N-methylazetidine-3-carboxamide], for which the negative logarithm of the IC50 (pIC50) at Human NMT1 (HsNMT1) [3] was 7.14; in series [5], 7.62. Besides, in the series “in vitro”, the half-life at 1 µM amounted to 14.5 min. Also, the pEC50 in series [6] was < 6.00.

The values are drawn from US20240166643A1, “IMIDAZO[1,2-A]PYRIDINE COMPOUNDS AND THEIR USE IN THERAPY” (Imperial College Innovations Limited, priority 2020, published 2024).
